# Results: patent US12414569B2 (priority 2019, dated 2025)
# Details: Citrus sinensis
row,SMILES,Distance Traveled [cm]
1,"Cc1nnc(C)s1 [2,5-Dimethyl-1,3,4-thiadiazole]",14
2,C=CCSSCC=C [Diallyl disulfide],24
3,O=CC=Cc1ccccc1 [Cinnamaldehyde],12
4,C=CCSSSCC=C [Diallyl Trisulfide],26
